Measurements as given in BindingDB's records for doi:10.1021/jm031026e (Universit&#224, 2004).

These molecules were tested against Sigma non-opioid intracellular receptor 1 (Cavia porcellus) (UniProt Q60492) (assay: In vitro binding affinity at opioid sigma-1 receptor in guinea pig brain membranes by (+)-[3H]pentazocine displacement.).
Sigma non-opioid intracellular receptor 1 (Cavia porcellus), sequence (Q60492 whole entry, looked up): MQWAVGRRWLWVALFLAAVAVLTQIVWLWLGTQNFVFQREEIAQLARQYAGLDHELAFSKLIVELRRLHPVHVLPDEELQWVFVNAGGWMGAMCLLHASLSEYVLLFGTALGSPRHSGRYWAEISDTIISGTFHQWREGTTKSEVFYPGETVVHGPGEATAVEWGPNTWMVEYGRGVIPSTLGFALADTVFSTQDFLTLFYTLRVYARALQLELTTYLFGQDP
COc1cccc2c1CCCC2N1CCN(C2CCCCC2)CC1 (centres undefined) [1-Cyclohexyl-4-(5-methoxy-1,2,3,4-tetrahydro-naphthalen-1-yl)-piperazine] was tested, and the Ki was 0.4 nM.
With COc1ccc2c(c1)CCCC2CCCN1CCN(C2CCCCC2)CC1 (centres undefined) [1-Cyclohexyl-4-[3-(6-methoxy-1,2,3,4-tetrahydro-naphthalen-1-yl)-propyl]-piperazine] the Ki was 0.36 nM.
c1ccc2c(c1)CCCC2CCCCCN1CCN(C2CCCCC2)CC1 (centres undefined) [1-Cyclohexyl-4-[5-(1,2,3,4-tetrahydro-naphthalen-1-yl)-pentyl]-piperazine] showed a Ki of 1.45 nM.
c1ccc2c(CCCCCN3CCN(C4CCCCC4)CC3)cccc2c1 [1-Cyclohexyl-4-(5-naphthalen-1-yl-pentyl)-piperazine] showed a Ki of 2.4 nM.
For c1ccc(CCN2CCCCC2)cc1 [N-phenethylpiperidine], the Ki was 309 nM.
c1ccc2c(c1)CCCC2CCCN1CCN(C2CCCCC2)CC1 (centres undefined) [1-Cyclohexyl-4-[3-(1,2,3,4-tetrahydro-naphthalen-1-yl)-propyl]-piperazine] was tested, and the Ki was 0.61 nM.
With COc1ccc2c(c1)C(CCCN1CCN(C3CCCCC3)CC1)CCC2 (centres undefined) [1-Cyclohexyl-4-[3-(7-methoxy-1,2,3,4-tetrahydro-naphthalen-1-yl)-propyl]-piperazine] the Ki was 9.04 nM.
For COc1cccc2c1CCCC2CCCCCCN1CCN(C2CCCCC2)CC1 (centres undefined) [1-Cyclohexyl-4-[6-(5-methoxy-1,2,3,4-tetrahydro-naphthalen-1-yl)-hexyl]-piperazine], the Ki was 3.07 nM.
Oc1ccc2c(c1)CCCC2CCCN1CCN(C2CCCCC2)CC1 (centres undefined) [5-[3-(4-Cyclohexyl-piperazin-1-yl)-propyl]-5,6,7,8-tetrahydro-naphthalen-2-ol] showed a Ki of 0.69 nM.
c1ccc2c(CCCN3CCN(C4CCCCC4)CC3)cccc2c1 [1-Cyclohexyl-4-(3-naphthalen-1-yl-propyl)-piperazine] was tested, and the Ki was 2.16 nM.
COc1cccc2c1CCCC2CN1CCN(C2CCCCC2)CC1 (centres undefined) [1-Cyclohexyl-4-(5-methoxy-1,2,3,4-tetrahydro-naphthalen-1-ylmethyl)-piperazine] was tested, and the Ki was 0.31 nM.
Molecule COc1cccc2c1CCCC2CCCCCN1CCN(C2CCCCC2)CC1 (centres undefined) [1-Cyclohexyl-4-[5-(5-methoxy-1,2,3,4-tetrahydro-naphthalen-1-yl)-pentyl]-piperazine] has a Ki of 1.52 nM.
For c1ccc2c(CCCCN3CCN(C4CCCCC4)CC3)cccc2c1 [1-Cyclohexyl-4-(4-naphthalen-1-yl-butyl)-piperazine], the Ki was 0.22 nM.
In the case of COc1cccc2c1CCCC2CCN1CCN(C2CCCCC2)CC1 (centres undefined) [1-Cyclohexyl-4-[2-(5-methoxy-1,2,3,4-tetrahydro-naphthalen-1-yl)-ethyl]-piperazine], the Ki is reported as 1.57 nM.
